The target in test [1] is T1, bovine serum albumin (BSA) (Bos taurus, UniProt P02769).
T1 construct: purchased Merck
Put plainly: Spectrofluorometric titration, binding to BSA. As to conditions: for ΔHb / ΔSb: van't Hoff, 300-310 K. As for the experimental part: (§1) The binding affinities of complexes towards bovine serum albumin (BSA) and human serum albumin (HSA) were analyzed using the spectrofluorometric measurements on the Cary Eclipse MY2048CH03 instrument. The scan rate was set to 600 nm min^−1, with both slits being 5 nm. The excitation wavelength for BSA was set to 295 nm and for HSA to 280 nm. These wavelengths are characteristic of the tryptophan residues in the active pocket of proteins. The spectra were recorded from 310 to 500 nm. The concentration of both proteins was held constant at 5 × 10^−6 M, and prepared in 1 M phosphate buffer saline of pH 7.4.
(§2) The measurements were repeated at three temperatures (27, 32, and 37 °C) to mimic the body temperature and to allow for the calculation of the thermodynamic parameters of binding using the vant’t Hoff equation (Equation (2)):(2) lnKb=−ΔHb/RT+ΔSb/R where ΔHb, ΔSb, and ΔGb represent the change in the enthalpy, entropy, and free energy of the binding process, respectively.

Test [2] deals with HCT116 colorectal carcinoma. Put plainly: CV viability assay. It counts as cell-based, Human. As to conditions: 72 h. As for the experimental part: (§3) Human cell lines (A375 melanoma, MCF-7 breast cancer, HCT116 colorectal carcinoma, A2780 ovarian cancer, and MRC5 lung fibroblasts) were purchased from American Type Culture Collection (Rockville, MD, USA).
(§4) The A2780 cells were cultivated in DMEM, while all of the other cell lines were cultivated in the HEPES-buffered RPMI-1640 medium. The cell culture mediums were supplemented with penicillin (100 units/mL), streptomycin (100 μg/mL), and 10% inactivated FBS. All of the cells were cultivated at 37 °C in a humidified atmosphere with 5% CO2.
(§5) The cells were seeded overnight in 96-well plates: A2780 and MRC-5 8 × 10^3 cells/well, HCT 116 6 × 10^3 cells/well, A375 5 × 10^3 cells/well, and MCF-7 at 10 × 10^3 cells/well [58]. All of the cells were treated with the following concentrations of investigated compounds: 100, 50, 25, 12.5, 6.25, 3.125, and 1.56 μM, except for the A2780 cells, which were treated with the following concentrations for the Cu compound only: 25, 12.5, 6.25, 3.125, 1.56, 0.78, and 0.39 μM. After 72 h of treatment, viability assays were conducted.

Test [3] concerns MRC5 lung fibroblasts. Put plainly: CV viability assay. Format: cell-based, Human. As to conditions: 72 h. The method, then:
as §3, §4, §5

Test [4] concerns A375 melanoma. Put plainly: CV viability assay. It counts as cell-based, Human. As to conditions: 72 h. The method, then: as §3, §4, §5
Test [5] deals with A2780 ovarian cancer. Put plainly: CV viability assay. It counts as cell-based, Human. The conditions noted are these: 72 h. The method, then: as §3, §4, §5
The test system of test [6] is MCF-7 breast cancer. Put plainly: CV viability assay. Format: cell-based, Human. The conditions noted are these: MCF-7, CV, 72 h. The method, then:
as §3, §4, §5

For test [7], the system named is HCT116 colorectal carcinoma. Put plainly: MTT viability assay. It counts as cell-based, Human. The conditions noted are these: 72 h. As for the experimental part:
as §3, §4, §5
A general note: Tetrazolium assays rely on reduction of a dye to a coloured formazan, in cell work by metabolically active cells.

In test [8] the test system is MRC5 lung fibroblasts. Put plainly: MTT viability assay. It counts as cell-based, Human. The conditions noted are these: 72 h. As for the experimental part: as §3, §4, §5
Test [9] has as its system A375 melanoma. Put plainly: MTT viability assay. It counts as cell-based, Human. As to conditions: 72 h. The method, then: as §3, §4, §5
The test system of test [10] is A2780 ovarian cancer. Put plainly: MTT viability assay. It counts as cell-based, Human. The conditions noted are these: 72 h. As for the experimental part: as §3, §4, §5
The subject of test [11] is MCF-7 breast cancer. Put plainly: MTT viability assay. Format: cell-based, Human. As to conditions: MCF-7, MTT, 72 h. As for the experimental part:
as §3, §4, §5

Test [12] addresses T2, BSA (Bos taurus, UniProt P02769).
T2 construct: purchased Merck
Put plainly: Competitive spectrofluorometric measurements with warfarin. It counts as binding, bovine. The conditions noted are these: for number of binding sites (n), competitive measurements with warfarin: BSA with equimolar warfarin; for BSA subdomain the complex binds to: concluded from competition with warfarin. As for the experimental part:
as §1
The competitive measurements were performed in the presence of warfarin, a site-specific marker for BSA subdomain IIA [33]. The equimolar concentrations of BSA and warfarin were prepared (5 × 10^−6 M), and after 30 min of incubation, the titrations using the solutions of the investigated complexes were conducted. The final concentrations of the added complexes were the same as for the previous experiments.

Test [13] deals with human serum albumin (HSA) (Homo sapiens, UniProt P02768). Put plainly: Spectrofluorometric titration, binding to HSA. The conditions noted are these: for ΔHb / ΔSb: van't Hoff, 300-310 K. As for the experimental part: as §1, §2
Chain of human serum albumin (HSA) (P02768 25-609): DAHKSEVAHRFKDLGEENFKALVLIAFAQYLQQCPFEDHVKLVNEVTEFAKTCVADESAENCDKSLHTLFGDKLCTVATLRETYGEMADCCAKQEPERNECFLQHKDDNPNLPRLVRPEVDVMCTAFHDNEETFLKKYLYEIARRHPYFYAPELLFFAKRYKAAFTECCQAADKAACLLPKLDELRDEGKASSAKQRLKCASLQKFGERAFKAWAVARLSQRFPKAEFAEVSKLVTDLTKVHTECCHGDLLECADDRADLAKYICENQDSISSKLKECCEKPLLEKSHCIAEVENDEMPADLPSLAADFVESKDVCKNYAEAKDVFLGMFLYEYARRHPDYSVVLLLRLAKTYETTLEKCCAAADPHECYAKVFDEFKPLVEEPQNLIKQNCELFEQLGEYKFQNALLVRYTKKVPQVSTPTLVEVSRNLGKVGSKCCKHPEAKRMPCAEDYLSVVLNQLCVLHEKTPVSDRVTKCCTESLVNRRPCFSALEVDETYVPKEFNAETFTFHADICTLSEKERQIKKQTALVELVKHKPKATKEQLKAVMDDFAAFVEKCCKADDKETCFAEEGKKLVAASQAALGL
Test [14] deals with MCF-7 breast cancer. The arrangement: method as in PMID 36364539. As to conditions: MCF-7, MTT test; cited from earlier work.

The values that follow come from publication PMC10419307, “The Effect of Metal Ions (Fe, Co, Ni, and Cu) on the Molecular-Structural, Protein Binding, and Cytotoxic Properties of Metal Pyridoxal-Thiosemicarbazone Complexes” (International Journal of Molecular Sciences, 2023).

Like-named read-outs stand apart in the source and are kept apart here.

In general, IC50 refers to the concentration at which inhibition is half-maximal.

T1 sequence (P02769 25-607): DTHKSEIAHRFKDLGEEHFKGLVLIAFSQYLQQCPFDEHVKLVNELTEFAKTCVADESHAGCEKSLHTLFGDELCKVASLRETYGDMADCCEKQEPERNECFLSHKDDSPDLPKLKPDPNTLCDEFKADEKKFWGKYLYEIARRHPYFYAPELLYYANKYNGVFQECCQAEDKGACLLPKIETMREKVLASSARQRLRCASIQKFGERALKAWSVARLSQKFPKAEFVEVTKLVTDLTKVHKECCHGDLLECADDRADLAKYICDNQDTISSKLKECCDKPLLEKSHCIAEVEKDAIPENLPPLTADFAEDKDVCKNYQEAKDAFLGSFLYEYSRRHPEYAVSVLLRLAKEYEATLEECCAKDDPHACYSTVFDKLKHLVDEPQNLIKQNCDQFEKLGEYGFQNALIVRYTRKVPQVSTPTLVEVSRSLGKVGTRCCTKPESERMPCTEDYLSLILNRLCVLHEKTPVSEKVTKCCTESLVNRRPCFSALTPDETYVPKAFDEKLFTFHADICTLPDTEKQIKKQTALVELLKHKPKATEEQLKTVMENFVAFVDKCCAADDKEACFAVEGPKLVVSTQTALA
T2 sequence (P02769 25-607): as above

Turning to `Cc1[nH+]cc(CO)c(C=NN=C(N)[S-])c1[O-].Cc1[nH+]cc(CO)c(C=NN=C(N)[S-])c1[O-].O.[Cl-].[Co+3]` [Co-PLTSC], the “n (number of binding places)” value amounted to 1.1 in [1] (T 300 K); 1.1 in [1] (T 305 K); 1.1 in test [1] (T 310 K); 1.0 in [13] (T 300 K); 1.0 in [13] (T 305 K); 1.0 in [13] (T 310 K). The ΔGb is -7.34 kcal/mol in test [1] (T 300 K); -7.74 kcal/mol in [1] (T 305 K); -8.15 kcal/mol in test [1] (T 310 K); -6.74 kcal/mol in test [13] (T 300 K); -6.91 kcal/mol in test [13] (T 305 K); -7.05 kcal/mol in [13] (T 310 K). The ΔHb in test [1] was determined as 16.8 kcal/mol; in [13] it was 3.04 kcal/mol. The IC50 in test [2], in [3], in [4], in test [5], in [6] and in test [7] was greater than 100 µM throughout. Also, the IC50 in test [8], in [9], in test [10] and in [11] was greater than 100 µM each time. Also, in [12], the “number of binding sites (n), competitive measurements with warfarin” value (from here on “number of binding sites (n)”) was 1.01. For the same molecule, the “Binding constant (Kb), competitive measurements with warfarin” value in test [12] (BSA with equimolar warfarin (5 × 10^−6 M), 30 min incubation) was determined as 52500 M⁻¹. In addition, in test [12] (BSA with warfarin vs without warfarin), the “reduction percentages of the binding constants” value was determined as 10%. Moreover, in test [12], the “BSA subdomain the complex binds to” value is “subdomains IIA and IIB”. In test [13], this molecule displayed a ΔSb of 136 J mol^−1 K^−1.

For the molecule `Cc1[nH+]cc(CO)c(C=NNC(N)=S)c1[O-].O.[Cl-].[Cl-].[Cl-].[Fe+3]` [Fe-PLTSC, [Fe(PLTSC)Cl2(H2O)]Cl], the “n (number of binding places)” value in test [1] (T 300 K) was found to be 1.1; in test [1] (T 305 K), 1.1; in test [1] (T 310 K), 1.1; in test [13] (T 300 K) it was 1.2; in [13] (T 305 K), 1.2; in [13] (T 310 K), 1.1. Moreover, the ΔGb was -7.03 kcal/mol in test [1] (T 300 K); -7.22 kcal/mol in [1] (T 305 K); -7.39 kcal/mol in [1] (T 310 K); -8.08 kcal/mol in test [13] (T 300 K); -8.46 kcal/mol in test [13] (T 305 K); -8.82 kcal/mol in test [13] (T 310 K). Also, the ΔHb was found to be 3.7 kcal/mol in test [1] and 13.9 kcal/mol in [13]. Also, the figures for the ΔSb in test [1] and in test [13] were 149 J mol^−1 K^−1 and 307 J mol^−1 K^−1, respectively. The IC50 was greater than 100 µM in [2]; greater than 100 µM in [3]; greater than 100 µM in test [4]; 93.5 ± 9.2 µM in test [5]; greater than 100 µM in [6]; greater than 100 µM in test [7]. Further, the IC50 was greater than 100 µM in test [8], greater than 100 µM in test [9], 86.3 ± 13.1 µM in test [10] and greater than 100 µM in test [11]. Further, the “number of binding sites (n)” value in test [12] is 1.10. In addition, the “BSA subdomain the complex binds to” value in [12] was “subdomain IIIA”.

As for `Cc1[nH+]cc(CO)c(C=NNC(N)=S)c1[O-].Cc1[nH+]cc(CO)c(C=NNC(N)=S)c1[O-].O.O=[N+]([O-])[O-].O=[N+]([O-])[O-].[Ni+2]` [Ni-PLTSC, Ni-pyridoxal-thiosemicarbazone], the “n (number of binding places)” value in [1] (T 300 K), in test [1] (T 305 K), in test [1] (T 310 K), in test [13] (T 300 K), in test [13] (T 305 K) and in [13] (T 310 K) was 1.2 each time. Moreover, the ΔGb is -9.97 kcal/mol in [1] (T 300 K); -9.8 kcal/mol in [1] (T 305 K); -9.66 kcal/mol in [1] (T 310 K); -8.87 kcal/mol in test [13] (T 300 K); -8.89 kcal/mol in test [13] (T 305 K); -8.89 kcal/mol in [13] (T 310 K). Moreover, the values for the ΔHb in test [1] and in test [13] were -19 kcal/mol and -7.5 kcal/mol, respectively. The ΔSb in test [1] is −126 J mol^−1 K^−1; in test [13] it was 15.5 J mol^−1 K^−1. Moreover, the 50% inhibitory concentration (IC50) in test [2], in [3], in [4], in test [5], in test [6] and in test [7] was greater than 100 µM in each case. In addition, the half-inhibitory concentration (IC50) in test [8], in [9], in [10] and in test [11] was greater than 100 µM in each case. Moreover, the “number of binding sites (n)” value in test [12] was found to be 1.30. Besides, the “BSA subdomain the complex binds to” value in test [12] is reported as “subdomain IIIA”.

`N.N.[Cl][Pt][Cl]` [cisplatin]: the IC50 in test [14] was 33.6 ± 4.8 µM.
